Experiment [1] concerns ζ PKC translocation to the plasma membrane. In words: ζ PKC intracellular distribution (sucrose gradient, immunoblot). It is filed as cell-based. The settings on record: CCL21 30 seconds; for ζ PKC translocation to the plasma membrane induced by CCL21: lymphocytes, 30 min pretreatment. As to the method: ζ PKC intracellular distribution. The assay was performed as previously described. Briefly, lymphocytes were stimulated under stirring with agonists at 37° C. Stimulation was stopped by diluting the cells in a 10 times larger volume of ice-cold PBS. Cells, resuspended in 1 ml of ice-cold PBS containing 8% sucrose, containing the Complete™ protease inhibitor cocktail from Roche, were sonicated and the homogenates were centrifuged at 800×g/10 min to remove nuclei and unbroken cells. The postnuclear supernatant was loaded on discontinuous sucrose gradient (50% sucrose, 30% sucrose) and centrifuged for 120 min. at 100,000×g. The light membrane fraction (plasma membrane) was collected in the 30% layer. Following SDS-PAGE on 10% acrylamide, proteins were electroblotted on nitrocellulose filters, probed with rabbit polyclonal antibodies anti ζ PKC (Santa Cruz Biotechnology), followed by goat polyclonal anti-rabbit HRP conjugated (Sigma) and developed using ECL (Amersham).

Experiment [2] has as its system lymphocyte rolling and arrest on PP-HEV. In words: Intravital video microscopy of lymphocyte-high endothelial venule interaction in Peyer's patches. It is filed as in vivo, mouse. The method, then:
Intravital video microscopy analysis of lymphocyte-high endothelial venule interaction in Peyer's patches. Lymphocytes (5×10^6/ml in DMEM without sodium bicarbonate supplemented with 20 mM Hepes, 5% FCS, pH7.1) were labeled with either CMFDA or CMTMR for 30 min at 37° C. 30×10^6 labeled cells were injected iv. In situ videomicroscopic analyses were carried out in high endothelial venules (HEV) in the secondary lymphoid organ Peyer's patch (PP) as previously described. Cell behavior was analyzed over a period of 20-30 min starting at 2 minutes after iv injection. Interactions of ≧1 s were considered significant and were scored. Cells were considered to be interacting whether they rolled, arrested or both. Lymphocytes that remained firmly adherent on venular wall for ≧10 s were considered arrested.

Experiment [3] addresses T1, RhoA binding to Citron-RBD (Homo sapiens, UniProt O14578).
T1 sequence (O14578 1091-1302 limits assumed): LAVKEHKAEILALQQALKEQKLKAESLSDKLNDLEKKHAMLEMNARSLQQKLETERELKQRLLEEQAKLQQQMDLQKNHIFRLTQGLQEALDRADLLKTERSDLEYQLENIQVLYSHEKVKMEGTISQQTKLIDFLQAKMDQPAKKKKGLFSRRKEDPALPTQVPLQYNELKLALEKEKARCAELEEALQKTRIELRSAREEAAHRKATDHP
In words: Affinity-precipitation (pull-down) of GTP-Val14-RhoA with Citron GST-RBD. The settings on record: 20 μg of domain, anti-RhoA immunoblot. As to the method:
(§1) Specificity of RhoA fusion domains and measurement of RhoA activation. The specificity of P1-RhoA fusion domains was evaluated by affinity-precipitation assay using the rho-binding domain (RBD) from Citron, Rhotekin and ROCK. Recombinant Val14-RhoA was loaded with 1 mM GTP at 37° C. for 90 min. 10 μg of Citron, Rhotekin or ROCK GST-RBD conjugated with glutathione beads were mixed with 5 μg of GTP-Val14-RhoA in […] of 50 mM Tris-HCl (pH 7.4), 5 mM MgCl2, 0.5 mM GTP, 2 mg/ml BSA (binding buffer). Binding was for 60 min. at 15° C. The beads were washed twice with binding buffer and subjected to SDS-polyacrylamide gel electrophoresis on a 12% gel. RhoA background binding to glutathione beads was negligible. In case of experiments in presence of P1-RhoA fusion domains, the domains were previously dissolved in binding buffer at 1 mg/ml.

The test system of experiment [4] is autoreactive, encephalitogenic T lymphocytes in inflamed brain microvessels. In words: Intravital microscopy of Ag-stimulated lymphocyte recruitment in inflamed brain microvessels. The settings on record: mouse model simulating human Multiple Sclerosis. It is filed as in vivo. The method, then:
The RhoA derived peptides described in Example 1 were tested for their ability to inhibit Ag-stimulated lymphocyte (autoreactive, encephalitogenic T lymphocytes) recruitment in inflamed brain by looking in vivo cell behavior with intravital microscopy, as described in Example 1. This in vivo model simulates, in mouse, human Multiple Sclerosis.

For experiment [5], the system named is CCL21-induced LFA-1-dependent lymphocyte adhesion to ICAM-1. Briefly: In vitro rapid adhesion assay on ICAM-1. The settings on record: 1 μM CCL21; for rapid adhesion induced by CCL21 on high density of ICAM-1: high density of ICAM-1 (˜5000 sites/μm^2); for rapid adhesion induced by CCL21 on low density of ICAM-1: low density of ICAM-1 (−500 sites/μm^2). It is filed as cell-based, mouse. The method, then: In vitro rapid adhesion assay on ICAM-1. ICAM-1 was purified from mouse spleens and adhesion assays were performed as previously reported. Briefly, primary naïve lymphocytes (about 70% T-, 30% B-cells) were isolated from peripheral and mesenteric lymph nodes and Peyer's patches from young BALB/c mice (Harlan, Italy). Adhesion assays were performed on eighteen well glass slides coated overnight at 4° C. with purified mouse ICAM-1; site density per square micrometer of immobilized ICAM-1 was calculated as reported.

For another experiment, the system named is LFA-1 lateral mobility. In words: LFA-1 distribution on plasma membrane (confocal microscopy). It is filed as cell-based, mouse. The settings on record: 1 μM CCL21 2 min. The method, then:
Evaluation of LFA-1 distribution on plasma membrane. Analysis and quantification of chemokine-induced LFA-1 surface distribution was determined by confocal microscopy, following the same procedure previously described. Briefly, lymphocytes were stimulated in suspension under stirring and then immediately fixed in 1% ice-cold paraformaldehyde in PBS, pH 7.4, for 10 min. Cell were washed and incubated with 10 μg/ml of TIB213 rat anti-mouse LFA-1 (ATCC) for 30 min on ice, washed 3 times and then incubated 30 min with Texas Red-conjugated goat anti-rat secondary antibody. The washed cells adhered for 30 min at 4° C. on 0.1% poly-L-lysine coated round 13 mm glass coverslips and were analyzed with a Carl Zeiss LSM 510 confocal imaging system, with a 63×C-Apochromat objective (NA 1.2). Definition and quantitative analysis of “disperse” and “clustered” morphologies of LFA-1 distribution was as previously described.

For experiment [6], the target named is T2, RhoA binding to Rhotekin-RBD (Homo sapiens, UniProt Q9BST9).
T2 sequence (Q9BST9 17-98 limits assumed): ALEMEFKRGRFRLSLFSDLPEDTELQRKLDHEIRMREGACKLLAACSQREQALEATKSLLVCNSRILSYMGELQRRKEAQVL
In words: Affinity-precipitation (pull-down) of GTP-Val14-RhoA with Rhotekin GST-RBD. The settings on record: 20 μg of domain, anti-RhoA immunoblot. As to the method:
as §1

The subject of another experiment is ζ PKC. In words: Measurement of ζ PKC kinase activity. The settings on record: 150 nM Wortmannin or 30 μM LY294002, 30 min, lymphocytes. It is filed as cell-based. The method, then: Measurement of ζ PKC kinase activity. The assay was performed as previously described. Briefly, lymphocytes were stimulated under stirring with agonists at 37° C. Stimulation was stopped with lysis buffer containing 50 mM Tris-HCl, pH 7.5, 1% Triton X-100, 0.01% SDS, 150 mM NaCl, 50 mM NaF, 10 mM sodium pyrophosphate, 1 μM phenylarsine oxide, containing the Complete™ protease inhibitor cocktail from Roche. After 30 min. on ice, lysates were centrifuged at 16,000 g for 1 min. to remove cell debris. Rabbit polyclonal anti ζ PKC (1 μg) or control rabbit serum was added to equal amount of cell lysates, followed by immunoprecipitation with trisacryl protein A. Equal amounts of ζ PKC were immunoprecipitated as confirmed by Western blot analysis. After four washing, immunoprecipitates were subjected to the kinase reaction for 30 min. at 30° C. in 50 μl of kinase buffer containing 0.5 mM EGTA, 10 mM MgC2, 20 mM HEPES, pH 7.4, 50 μM ATP, 5 μCi [γ-^32P]ATP and 2 μg myelin basic protein (MBP) as a substrate. The reaction was stopped by addition of 5% TCA and the reaction mixture was filtered through phosphocellulose paper. After four rinses with 1% phosphoric acid radioactivity on the filter was determined at a scintillation counter.

The test system of experiment [7] is LFA-1 high affinity state. Briefly: Measurement of LFA-1 high affinity state (soluble 125I-ICAM-1 binding). It is filed as cell-based, mouse. The settings on record: 1 μM CCL21 2 min. The method, then:
Measurement of LFA-1 high affinity state. Induction of LFA-1 high affinity state by CCL21 was evaluated by measuring binding of soluble ^125I-ICAM-1. Briefly, ICAM-1 was iodinated with ^125NaI by the Chizzonite method. The binding assay was performed at 37° C. in a 500 μl Eppendorf tube. 40 μl of lymphocyte suspension (5×10^7/ml in PBS containing 1 mg/ml BSA, 2 mM MgCl2, 1 mM CaCl2, 1 mM D-glucose, pH 7.2) were directly layered on […] oil cushion of 2/1 dibutyl/dioctyl phthalates. Lymphocytes were stimulated with 10 μl of PBS containing chemokine (6 μM) and ^125I-ICAM-1 (5×10^5 CPM corresponding approximately to 2 μg of ^125I-ICAM-1). The binding reaction was stopped by rapid centrifugation in microfuge. Radioactivity bound to lymphocytes was counted with a gamma counter.

The subject of experiment [8] is Swiss 3T3 mouse fibroblasts. In words: LPA-induced actin stress fibers and membrane ruffling in fibroblasts. It is filed as cell-based. The settings on record: 4 hours at 37° C. with peptide, then 10 min 25 ng/ml LPA. The method, then:
Evaluation of actin stress fibers content. Swiss 3T3 mouse fibroblasts were maintained in DMEM containing 10% FCS for 6 days and then starved for 12 hours. Actin stress fibers content was evaluated in permeabilized cells with TRITC-labeled phalloidin. Analysis was performed by using a Zeiss LSM confocal microscope.

Setting [9] is: pretreated lymphocytes injected iv.

Turning to “P1-RhoA 23-40: Penetratin-1 fused through a glycine to human RhoA aa 23-40 (IVFSKDQFPEVYVPTVFE, Domain I); aa 34”, in [1] (100 μM), the “blockade of ζ PKC translocation to the plasma membrane, densitometric analysis” value is “about 82%”. Further, the “ζ PKC translocation to the plasma membrane induced by CCL21” value (“ζ PKC translocation … by CCL21” below) in experiment [1] is on record as “blocked”. The “percentage of cells displaying only rolling on PP-HEV” value in experiment [2] (50 μM pretreatment) is given as “increased”. Moreover, the “inhibition of stable arrest of lymphocytes on PP-HEV” value in experiment [2] (50 μM pretreatment, P<0.01) is reported as “about 75%”. Moreover, the “lymphocyte tethering and interaction with vessels” value in [2] (pretreated lymphocytes injected iv, 50 μM) is “did not influence”. In experiment [3], the “binding of RhoA to Citron” value was “blocked”. In experiment [4], the “recruitment/arrest of Ag-stimulated lymphocytes in inflamed brain microvessels” value is reported as “blocks recruitment”. For the same compound, in [5], the “rapid adhesion induced by CCL21 on high density of ICAM-1” value was “blocked adhesion triggering in a dose-dependent manner” and the “rapid adhesion induced by CCL21 on low density of ICAM-1” value was “prevented in a dose-dependent manner”. Further, in the experiment with LFA-1 lateral mobility, the “LFA-1 rapid lateral mobility (generation of LFA-1 clusters) induced by CCL21” value (“LFA-1 rapid lateral mobility” below) was “prevented”.

Turning to “P1-RhoA 75-92: Penetratin-1 fused through a glycine to human RhoA aa 75-92 (PDTDVILMCFSIDSPDSL, Domain II); aa 34”, the “ζ PKC translocation … by CCL21” value in [1] is given as “did not prevent”. In addition, the “rolling and arrest of circulating lymphocytes on PP-HEV” value (shortened to “rolling and arrest”) in [2] (setting [9]) was “did not affect”. Besides, in experiment [5], the “rapid adhesion induced by CCL21 on high density of ICAM-1” value is given as “ineffective” and the “rapid adhesion induced by CCL21 on low density of ICAM-1” value is reported as “unable to block”. Further, the “LFA-1 rapid lateral mobility” value in the experiment with LFA-1 lateral mobility is “did not prevent”. The “binding of RhoA to Rhotekin” value in [6] is reported as “blocked”.

`COC[C@H]1OC(=O)c2coc3c2[C@@]1(C)C1=C(C3=O)[C@@H]2CCC(=O)[C@@]2(C)C[C@H]1OC(C)=O` [Wortmannin]: the “prevention of the increase of ζ PKC kinase activity induced by CCL21” value in the experiment with ζ PKC was “about 51%”.

For `C[C@@H](N)[C@H]1CC[C@H](C(=O)Nc2ccncc2)CC1` [Y27632, reference compound], the “rolling and arrest” value in experiment [2] (setting [9]) is “rolled and adhered normally”. Also, in experiment [5], the “rapid adhesion induced by CCL21 on high density of ICAM-1” value is given as “did not inhibit” and the “rapid adhesion induced by CCL21 on low density of ICAM-1” value was “did not inhibit”. Moreover, in the experiment on LFA-1 lateral mobility, the “LFA-1 rapid lateral mobility” value was “neither LFA-1 affinity triggering (FIG. 2H) nor induction of lateral mobility were blocked”. In experiment [7], the “LFA-1 high affinity state triggering by CCL21” value is listed as “neither LFA-1 affinity triggering (FIG. 2H) nor induction of lateral mobility were blocked”.

As for `O=c1cc(N2CCOCC2)oc2c(-c3ccccc3)cccc12` [LY294002], the “prevention of the increase of ζ PKC kinase activity induced by CCL21” value with ζ PKC was around 62%.

For the compound “P1: Plasma membrane translocating sequence from third helix of Antennapedia homeodomain, RQIKIWFQNRRMKWKK; control peptide [reference compound]”, the “ζ PKC translocation … by CCL21” value in [1] is given as “did not prevent”. Moreover, the “rolling and arrest” value in experiment [2] (setting [9]) was “did not affect”. Further, in experiment [5], the “rapid adhesion induced by CCL21 on high density of ICAM-1” value is “ineffective” and the “rapid adhesion induced by CCL21 on low density of ICAM-1” value is listed as “unable to block”. For the same compound, in the experiment on LFA-1 lateral mobility, the “LFA-1 rapid lateral mobility” value is “did not prevent”. Also, in experiment [7], the “LFA-1 high affinity state triggering by CCL21” value is reported as “did not prevent”. Besides, in experiment [8], the “accumulation of actin stress fibers upon LPA triggering” value is reported as “completely ineffective”.

The record behind these values is patent US20050209147A1, “Peptide inhibitors of RhoA signaling” (The Board of Trustees of the Leland Stanford Junior …, priority 2004, published 2005).
